This is an account of results in patent publication US11986471B2, “Compounds and methods of use” (Tango Therapeutics, Inc., priority 2018, dated 2024).

Test [1] deals with T1, PRMT5 (Homo sapiens, UniProt O14744).
T1 construct: purchased Viva (custom protein)
Description: PRMT5 IC50 assay in the presence of SAM as cofactor. Type of test: biochemical. Put shortly: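 Three cofactor conditions tested for PRMT5 inhibition: none, MTA and SAM, each giving an IC50. For conversion to Ki, the MTA-condition IC50 is divided by 13.5 and the SAM-condition IC50 by 1.5, and the two Ki values are expressed as a SAM/MTA ratio.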

Test [2] has as its target T1, PRMT5. As to the kind of experiment: PRMT5 IC50 assay with no cofactor. In kind it is biochemical. The essentials: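 Ki conversion: SAM arm, Ki=IC50/1.5; MTA arm, Ki=IC50/13.5. No-cofactor arm reported as IC50 only. Selectivity expressed as Ki(SAM)/Ki(MTA).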
The target of test [3] is T1, PRMT5. Description: PRMT5 IC50 assay in the presence of MTA as cofactor. In kind it is biochemical. The note with it: for IC50: PRMT5, MTA as cofactor. The essentials:
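Three cofactor conditions are run: SAM-bound, MTA-bound and cofactor-free enzyme. IC50 is read from each; for the SAM and MTA arms it is divided by 1.5 and 13.5 respectively to give Ki.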

A further test has as its system HAP1 MTAP-intact. Description: SDMA in-cell western assay, HAP1 MTAP-intact cell line. Type of test: cell-based. The note with it: Homo sapiens. Put shortly:
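HAP1 isogenic pair: endogenous MTAP vs MTAP-null. Readout SDMA by in-cell western; IC50 per line. Ratio ≥3 fold = MTAP-selective.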

A further test relates to HAP1 MTAP-deleted. Description: SDMA in-cell western assay, HAP1 MTAP-deleted cell line. Type of test: cell-based. As to conditions: for IC50: Homo sapiens, HAP1 MTAP-deleted cell line; for MTAP Intact/Deleted Ratio: IC50 ratio HAP1 MTAP-intact / HAP1 MTAP-deleted. The essentials: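 IC50 from SDMA in-cell western; HAP1 line lacking MTAP (null), paired isogenically with MTAP-intact HAP1 expressing endogenous MTAP.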

Setting [4] is: ratio between Ki in the presence of SAM and Ki in the presence of MTA.
The mark [5] stands for this setting: ratio between the Ki in the presence of SAM and the Ki in the presence of MTA.

T1 sequence (O14744 whole entry): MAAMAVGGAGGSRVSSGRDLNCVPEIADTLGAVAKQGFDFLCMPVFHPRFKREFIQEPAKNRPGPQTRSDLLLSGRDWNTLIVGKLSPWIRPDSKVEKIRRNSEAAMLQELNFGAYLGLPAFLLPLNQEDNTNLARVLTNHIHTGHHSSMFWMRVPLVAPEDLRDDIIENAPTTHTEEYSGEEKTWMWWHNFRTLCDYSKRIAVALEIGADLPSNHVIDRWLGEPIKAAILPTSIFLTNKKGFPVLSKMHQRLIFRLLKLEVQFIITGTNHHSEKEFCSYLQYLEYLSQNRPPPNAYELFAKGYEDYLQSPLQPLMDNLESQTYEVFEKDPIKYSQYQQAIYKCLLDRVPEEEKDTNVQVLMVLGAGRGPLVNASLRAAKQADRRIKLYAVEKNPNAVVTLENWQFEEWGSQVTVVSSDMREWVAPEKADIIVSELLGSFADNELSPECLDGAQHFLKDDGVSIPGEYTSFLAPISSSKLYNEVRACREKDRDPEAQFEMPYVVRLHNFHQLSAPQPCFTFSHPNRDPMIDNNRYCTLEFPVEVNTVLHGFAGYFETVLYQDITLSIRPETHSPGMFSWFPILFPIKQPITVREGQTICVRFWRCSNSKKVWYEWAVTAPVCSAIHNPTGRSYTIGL
T1 sequence (Q9BQA1 whole entry partner): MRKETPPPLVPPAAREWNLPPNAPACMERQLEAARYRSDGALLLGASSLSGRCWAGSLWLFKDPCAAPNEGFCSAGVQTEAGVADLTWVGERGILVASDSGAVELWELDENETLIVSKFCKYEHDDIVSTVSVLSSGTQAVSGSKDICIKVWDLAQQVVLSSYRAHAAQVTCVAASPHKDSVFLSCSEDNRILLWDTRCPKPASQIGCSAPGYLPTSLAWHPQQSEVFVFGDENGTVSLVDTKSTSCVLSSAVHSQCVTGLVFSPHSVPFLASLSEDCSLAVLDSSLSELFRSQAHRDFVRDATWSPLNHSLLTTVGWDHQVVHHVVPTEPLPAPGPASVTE

Consider `CC(=O)N1CCC(Nc2cc(C(=O)NC[C@H](O)CN3CCc4cc(OCc5ocnc5C)ccc4C3)cc(N3CCCCC3)c2)CC1` (single isomer, unassigned) [Compound 631], for which the IC50 was 50 to 500 nM on PRMT5 [1]; at least 5000 nM on PRMT5 [2] (read-out: No Co-factor IC50); 50 to 500 nM on PRMT5 [3]; 1000 to 10000 nM in the test on HAP1 MTAP-intact; below 1000 nM in the test on HAP1 MTAP-deleted. Further, the “SAM/MTA Ratio” value at PRMT5 [3] (setting [4]) was “A (a Ki ratio greater than or equal to 10 fold between the Ki in the presence of SAM and the Ki in the presence of MTA)”. For the same molecule, the “MTAP Intact/Deleted Ratio” value in the test on HAP1 MTAP-deleted was “B* (an IC50 ratio greater than or equal to 3 fold but lower than 10 fold between the IC50 in the HAP1 MTAP-intact cell line and the HAP1 MTAP-deleted cell line)”.

On to `Cc1nocc1COc1ccc2c(c1C)CCN(C[C@@H](O)CNC(=O)c1ccnc(NC3CCC3)c1)C2` [Compound 263, 2-(cyclobutylamino)-N-[(2S)-2-hydroxy-3-[5-methyl-6-[(3-methylisoxazol-4-yl)methoxy]-3,4-dihydro-1H-isoquinolin-2-yl]propyl]pyridine-4-carboxamide], for which the IC50 at PRMT5 [1] was 500 to 5000 nM; at PRMT5 [2] (read-out: No Co-factor IC50), at least 5000 nM; on PRMT5 [3] it was 500 to 5000 nM; in the test with HAP1 MTAP-intact, at least 10000 nM; in the test on HAP1 MTAP-deleted, at least 10000 nM. The “SAM/MTA Ratio” value on PRMT5 [3] (setting [4]) is “A (a Ki ratio greater than or equal to 10 fold between the Ki in the presence of SAM and the Ki in the presence of MTA)”. Besides, the “MTAP Intact/Deleted Ratio” value in the test with HAP1 MTAP-deleted was “C* (an IC50 ratio of less than 3 fold between the IC50 in the HAP1 MTAP-intact cell line and the HAP1 MTAP-deleted cell line)”.

For `CC(=O)N1CC(Nc2cc(C(=O)NC[C@H](O)CN3CCc4cc(OCc5ocnc5C)ccc4C3)nc(C(C)(C)C)n2)C1` [Compound 564, (S)-6-((1-acetylazetidin-3-yl)amino)-2-(tert-butyl)-N-(2-hydroxy-3-(6-((4-methyloxazol-5-yl)methoxy)-3,4-dihydroisoquinolin-2(1H)-yl)propyl)pyrimidine-4-carboxamide], the IC50 at PRMT5 [1] is 50 to 500 nM; against PRMT5 [2], 500 to 5000 nM; on PRMT5 [3] it was 50 to 500 nM; with HAP1 MTAP-intact, 1000 to 10000 nM; in the test on HAP1 MTAP-deleted, below 1000 nM. The “SAM/MTA Ratio” value at PRMT5 [3] (setting [5]) is “A (a Ki ratio greater than or equal to 10 fold between the Ki in the presence of SAM and the Ki in the presence of MTA)”. For the same molecule, the “MTAP Intact/Deleted Ratio” value in the test with HAP1 MTAP-deleted is “B* (an IC50 ratio greater than or equal to 3 fold but lower than 10 fold between the IC50 in the HAP1 MTAP-intact cell line and the HAP1 MTAP-deleted cell line)”.

As for `CC(C)C(=O)N1CCC(Nc2cc(C(=O)NC[C@H](O)CN3CCc4c(ccc(OCc5cnco5)c4Cl)C3)ccn2)CC1` [Compound 452], the IC50 on PRMT5 [1] is 50 to 500 nM; against PRMT5 [2], 500 to 5000 nM; on PRMT5 [3], 50 to 500 nM; in the test on HAP1 MTAP-intact, at least 10000 nM; with HAP1 MTAP-deleted, 1000 to 10000 nM. Besides, at PRMT5 [3] (setting [5]), the “SAM/MTA Ratio” value is “A (a Ki ratio greater than or equal to 10 fold between the Ki in the presence of SAM and the Ki in the presence of MTA)”. Moreover, the “MTAP Intact/Deleted Ratio” value in the test with HAP1 MTAP-deleted is “B* (an IC50 ratio greater than or equal to 3 fold but lower than 10 fold between the IC50 in the HAP1 MTAP-intact cell line and the HAP1 MTAP-deleted cell line)”.

In the case of `CC(C)(C)N1CCN(c2nc(NC3COC3)cc(C(=O)NC[C@H](O)CN3CCc4cc(OCc5cnco5)ccc4C3)n2)CC1` [Compound 373], the 50% inhibitory concentration (IC50) was 50 to 500 nM on PRMT5 [1]; 500 to 5000 nM at PRMT5 [2] (read-out: No Co-factor IC50); 50 to 500 nM at PRMT5 [3]; at least 10000 nM in the test with HAP1 MTAP-intact; 1000 to 10000 nM in the test on HAP1 MTAP-deleted. Also, the “SAM/MTA Ratio” value on PRMT5 [3] (setting [4]) is “A (a Ki ratio greater than or equal to 10 fold between the Ki in the presence of SAM and the Ki in the presence of MTA)”. Further, in the test on HAP1 MTAP-deleted, the “MTAP Intact/Deleted Ratio” value is “B* (an IC50 ratio greater than or equal to 3 fold but lower than 10 fold between the IC50 in the HAP1 MTAP-intact cell line and the HAP1 MTAP-deleted cell line)”.

`O=C(NC[C@H](O)CN1CCc2cc(OCc3cnco3)ccc2C1)c1cc(NC2CCC2)ccn1` [Compound 509, (S)-4-(cyclobutylamino)-N-(2-hydroxy-3-(6-(oxazol-5-ylmethoxy)-3,4-dihydroisoquinolin-2(1H)-yl)propyl)picolinamide]: the IC50 is 500 to 5000 nM at PRMT5 [1]; 500 to 5000 nM at PRMT5 [2]; 50 to 500 nM at PRMT5 [3]; 1000 to 10000 nM with HAP1 MTAP-intact; below 1000 nM in the test with HAP1 MTAP-deleted. The “SAM/MTA Ratio” value on PRMT5 [3] (setting [5]) was “A (a Ki ratio greater than or equal to 10 fold between the Ki in the presence of SAM and the Ki in the presence of MTA)”. For the same molecule, the “MTAP Intact/Deleted Ratio” value in the test on HAP1 MTAP-deleted was “C* (an IC50 ratio of less than 3 fold between the IC50 in the HAP1 MTAP-intact cell line and the HAP1 MTAP-deleted cell line)”.

`CCN(C)c1cc(C(=O)NC[C@H](O)CN2CCc3c(ccc(OCc4cnco4)c3Cl)C2)cc(NC2CCC2)n1` [Compound 445, (S)—N-(3-(5-chloro-6-(oxazol-5-ylmethoxy)-3N-dihydroisoquinolin-2(1H)-yl)-2-hydroxypropyl)-2-(cyclobutylamino)-6-(ethyl(methyl)amino)isonicotinamide]: the IC50 at PRMT5 [1] was 500 to 5000 nM; against PRMT5 [2] it was at least 5000 nM; at PRMT5 [3], 50 to 500 nM; in the test on HAP1 MTAP-intact, at least 10000 nM; in the test on HAP1 MTAP-deleted, at least 10000 nM. Also, the “SAM/MTA Ratio” value at PRMT5 [3] (setting [5]) is “A (a Ki ratio greater than or equal to 10 fold between the Ki in the presence of SAM and the Ki in the presence of MTA)”. For the same molecule, in the test with HAP1 MTAP-deleted, the “MTAP Intact/Deleted Ratio” value was “C* (an IC50 ratio of less than 3 fold between the IC50 in the HAP1 MTAP-intact cell line and the HAP1 MTAP-deleted cell line)”.

As to `O=C(NC[C@H](O)CN1CCc2c(ccc(OCc3cnco3)c2Br)C1)c1ccnc(NC2CCCC2)c1` [Compound 404, (S)—N-(3-(5-bromo-6-(oxazol-5-ylmethoxy)-3N-dihydroisoquinolin-2(1H)-yl)-2-hydroxypropyl)-2-(cyclopentylamino)isonicotinamide], the IC50 at PRMT5 [1] was 50 to 500 nM; on PRMT5 [2] (read-out: No Co-factor IC50), at least 5000 nM; at PRMT5 [3] it was 50 to 500 nM; in the test on HAP1 MTAP-intact, at least 10000 nM; in the test on HAP1 MTAP-deleted, at least 10000 nM. Moreover, the “SAM/MTA Ratio” value on PRMT5 [3] (setting [4]) was “A (a Ki ratio greater than or equal to 10 fold between the Ki in the presence of SAM and the Ki in the presence of MTA)”. In the test with HAP1 MTAP-deleted, the “MTAP Intact/Deleted Ratio” value was “C* (an IC50 ratio of less than 3 fold between the IC50 in the HAP1 MTAP-intact cell line and the HAP1 MTAP-deleted cell line)”.

`Cc1ncoc1COc1ccc2c(c1)CCN(C[C@@H](O)CNC(=O)c1cc(NC3CCC3)nc(N3CCN(C(=O)C4CC4)CC3)c1)C2` [Compound 455, 2-(cyclobutylamino)-6-(4-cvclopropanecarbonylpiperazin-1-yl)-N-[(2S)-2-hydroxy-3-{6-[(4-methyl-1,3-oxazol-5-yl)methoxy]-1,2,3,4-tetrahydroisoquinolin-2-yl}propyl]pyridine-4-carboxamide]: the IC50 on PRMT5 [1] was 50 to 500 nM; on PRMT5 [2], 50 to 500 nM; on PRMT5 [3], 50 to 500 nM; with HAP1 MTAP-intact, below 1000 nM; with HAP1 MTAP-deleted, below 1000 nM. At PRMT5 [3] (setting [5]), the “SAM/MTA Ratio” value is “A (a Ki ratio greater than or equal to 10 fold between the Ki in the presence of SAM and the Ki in the presence of MTA)”. Moreover, the “MTAP Intact/Deleted Ratio” value with HAP1 MTAP-deleted is “B* (an IC50 ratio greater than or equal to 3 fold but lower than 10 fold between the IC50 in the HAP1 MTAP-intact cell line and the HAP1 MTAP-deleted cell line)”.
